Tested on: Key Broadleaf Weed and Crop Species
Assay: Post-Emergent Test II (Table 5)
Type: in vivo
Conditions: Abutilon theophrasti, post-emergence, 336 h, ABUTH: velvetleaf (Abutilon theophrasti), application rate 70 (kg ai/ha; footnote: g ai/ha), read-out: Visual Growth Reduction (%) 14 Days After Application ABUTH
Method in brief: (§1)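 Visual injury ratings (0 = no injury, 100 = complete kill) taken 14 days after treatment, relative to untreated controls. Compounds, in an acetone/DMSO aqueous carrier with crop oil and surfactant, were applied by track sprayer at 187 L/ha, in a twofold dilution series from the top rate, to plants at the first to second true-leaf stage.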
Molecule COC(=O)c1nc(-c2ccc(C(F)(F)F)nc2C)c(F)c(N)c1Cl [Compound 35] has a pest or weed control at 70 g/ha of 0 to 29%.

Same assay, conditions: Abutilon theophrasti, post-emergence, 336 h, ABUTH: velvetleaf (Abutilon theophrasti), application rate 140 (kg ai/ha; footnote: g ai/ha), read-out: Visual Growth Reduction (%) 14 Days After Application ABUTH
Molecule COC(=O)c1nc(-c2ccc(C(F)(F)F)nc2C)c(F)c(N)c1Cl [Compound 35] has a pest or weed control at 140 g/ha of 0 to 29%.

Same assay, conditions: Amaranthus retroflexus, post-emergence, 336 h, AMARE: redroot pigweed (Amaranthus retroflexus), application rate 70 (kg ai/ha; footnote: g ai/ha), read-out: Visual Growth Reduction (%) 14 Days After Application AMARE
Work on COC(=O)c1nc(-c2ccc(C(F)(F)F)nc2C)c(F)c(N)c1Cl [Compound 35] yielded a pest or weed control at 70 g/ha of 0 to 29%.

Same assay, conditions: Amaranthus retroflexus, post-emergence, 336 h, AMARE: redroot pigweed (Amaranthus retroflexus), application rate 140 (kg ai/ha; footnote: g ai/ha), read-out: Visual Growth Reduction (%) 14 Days After Application AMARE
In the case of COC(=O)c1nc(-c2ccc(C(F)(F)F)nc2C)c(F)c(N)c1Cl [Compound 35], the pest or weed control at 140 g/ha is reported as 0 to 29%.

Same assay, conditions: Brassica napus, post-emergence, 336 h, BRSSS: oilseed rape, canola (Brassica napus), application rate 70 (kg ai/ha; footnote: g ai/ha), read-out: Visual Growth Reduction (%) 14 Days After Application BRSSS
In the case of COC(=O)c1nc(-c2ccc(C(F)(F)F)nc2C)c(F)c(N)c1Cl [Compound 35], the pest or weed control at 70 g/ha is reported as 0 to 29%.

Same assay, conditions: Brassica napus, post-emergence, 336 h, BRSSS: oilseed rape, canola (Brassica napus), application rate 140 (kg ai/ha; footnote: g ai/ha), read-out: Visual Growth Reduction (%) 14 Days After Application BRSSS
Work on COC(=O)c1nc(-c2ccc(C(F)(F)F)nc2C)c(F)c(N)c1Cl [Compound 35] yielded a pest or weed control at 140 g/ha of 0 to 29%.

Same assay, conditions: Chenopodium album, post-emergence, 336 h, CHEAL: lambsquarters (Chenopodium album), application rate 70 (kg ai/ha; footnote: g ai/ha), read-out: Visual Growth Reduction (%) 14 Days After Application CHEAL
With COC(=O)c1nc(-c2ccc(C(F)(F)F)nc2C)c(F)c(N)c1Cl [Compound 35] the pest or weed control at 70 g/ha was 0 to 29%.

Same assay, conditions: Chenopodium album, post-emergence, 336 h, CHEAL: lambsquarters (Chenopodium album), application rate 140 (kg ai/ha; footnote: g ai/ha), read-out: Visual Growth Reduction (%) 14 Days After Application CHEAL
Work on COC(=O)c1nc(-c2ccc(C(F)(F)F)nc2C)c(F)c(N)c1Cl [Compound 35] yielded a pest or weed control at 140 g/ha of 0 to 29%.

Same assay, conditions: Euphorbia heterophylla, post-emergence, 336 h, EPHHL: wild poinsettia (Euphorbia heterophylla), application rate 70 (kg ai/ha; footnote: g ai/ha), read-out: Visual Growth Reduction (%) 14 Days After Application EPHHL
For COC(=O)c1nc(-c2ccc(C(F)(F)F)nc2C)c(F)c(N)c1Cl [Compound 35], the pest or weed control at 70 g/ha was 0 to 29%.

Same assay, conditions: Euphorbia heterophylla, post-emergence, 336 h, EPHHL: wild poinsettia (Euphorbia heterophylla), application rate 140 (kg ai/ha; footnote: g ai/ha), read-out: Visual Growth Reduction (%) 14 Days After Application EPHHL
COC(=O)c1nc(-c2ccc(C(F)(F)F)nc2C)c(F)c(N)c1Cl [Compound 35] showed a pest or weed control at 140 g/ha of 0 to 29%.

Same assay, conditions: Helianthus annuus, post-emergence, 336 h, HELAN: sunflower (Helianthus annuus), application rate 70 (kg ai/ha; footnote: g ai/ha), read-out: Visual Growth Reduction (%) 14 Days After Application HELAN
Molecule COC(=O)c1nc(-c2ccc(C(F)(F)F)nc2C)c(F)c(N)c1Cl [Compound 35] has a pest or weed control at 70 g/ha of 0 to 29%.

Same assay, conditions: Helianthus annuus, post-emergence, 336 h, HELAN: sunflower (Helianthus annuus), application rate 140 (kg ai/ha; footnote: g ai/ha), read-out: Visual Growth Reduction (%) 14 Days After Application HELAN
For COC(=O)c1nc(-c2ccc(C(F)(F)F)nc2C)c(F)c(N)c1Cl [Compound 35], the pest or weed control at 140 g/ha was 0 to 29%.

Same assay, conditions: Viola tricolor, post-emergence, 336 h, VIOTR: wild pansy (Viola tricolor), application rate 70 (kg ai/ha; footnote: g ai/ha), read-out: Visual Growth Reduction (%) 14 Days After Application VIOTR
In the case of COC(=O)c1nc(-c2ccc(C(F)(F)F)nc2C)c(F)c(N)c1Cl [Compound 35], the pest or weed control at 70 g/ha is reported as 0 to 29%.

Same assay, conditions: Viola tricolor, post-emergence, 336 h, VIOTR: wild pansy (Viola tricolor), application rate 140 (kg ai/ha; footnote: g ai/ha), read-out: Visual Growth Reduction (%) 14 Days After Application VIOTR
With COC(=O)c1nc(-c2ccc(C(F)(F)F)nc2C)c(F)c(N)c1Cl [Compound 35] the pest or weed control at 140 g/ha was 0 to 29%.

Tested on: Key Grass and Sedge Weeds as well as Grass Crops
Assay: Post-Emergent Test II (Table 6)
Type: in vivo
Conditions: post-emergence, 336 h, CYPSS, 70 g ai/ha, 14 days after application, read-out: Visual Growth Reduction (%) 14 Days After Application CYPSS
Method in brief: as §1
Work on COC(=O)c1nc(-c2ccc(C(F)(F)F)nc2C)c(F)c(N)c1Cl [Compound 35] yielded a pest or weed control at 70 g/ha of 0 to 29%.

Same assay, conditions: post-emergence, 336 h, CYPSS, 140 g ai/ha, 14 days after application, read-out: Visual Growth Reduction (%) 14 Days After Application CYPSS
Molecule COC(=O)c1nc(-c2ccc(C(F)(F)F)nc2C)c(F)c(N)c1Cl [Compound 35] has a pest or weed control at 140 g/ha of 0 to 29%.

Same assay, conditions: post-emergence, 336 h, DIGSA: crabgrass (Digitaria sanguinalis), 70 g ai/ha, 14 days after application, read-out: Visual Growth Reduction (%) 14 Days After Application DIGSA
COC(=O)c1nc(-c2ccc(C(F)(F)F)nc2C)c(F)c(N)c1Cl [Compound 35] showed a pest or weed control at 70 g/ha of 0 to 29%.

Same assay, conditions: post-emergence, 336 h, DIGSA: crabgrass (Digitaria sanguinalis), 140 g ai/ha, 14 days after application, read-out: Visual Growth Reduction (%) 14 Days After Application DIGSA
With COC(=O)c1nc(-c2ccc(C(F)(F)F)nc2C)c(F)c(N)c1Cl [Compound 35] the pest or weed control at 140 g/ha was 0 to 29%.

Same assay, conditions: post-emergence, 336 h, ECHSS, 70 g ai/ha, 14 days after application, read-out: Visual Growth Reduction (%) 14 Days After Application ECHSS
COC(=O)c1nc(-c2ccc(C(F)(F)F)nc2C)c(F)c(N)c1Cl [Compound 35] gave a pest or weed control at 70 g/ha of 0 to 29%.

Same assay, conditions: post-emergence, 336 h, ECHSS, 140 g ai/ha, 14 days after application, read-out: Visual Growth Reduction (%) 14 Days After Application ECHSS
For COC(=O)c1nc(-c2ccc(C(F)(F)F)nc2C)c(F)c(N)c1Cl [Compound 35], the pest or weed control at 140 g/ha was 0 to 29%.

Same assay, conditions: post-emergence, 336 h, ORYSS (crop), 70 g ai/ha, 14 days after application, read-out: Visual Growth Reduction (%) 14 Days After Application ORYSS
Molecule COC(=O)c1nc(-c2ccc(C(F)(F)F)nc2C)c(F)c(N)c1Cl [Compound 35] has a pest or weed control at 70 g/ha of 0 to 29%.

Same assay, conditions: post-emergence, 336 h, ORYSS (crop), 140 g ai/ha, 14 days after application, read-out: Visual Growth Reduction (%) 14 Days After Application ORYSS
With COC(=O)c1nc(-c2ccc(C(F)(F)F)nc2C)c(F)c(N)c1Cl [Compound 35] the pest or weed control at 140 g/ha was 0 to 29%.

Same assay, conditions: post-emergence, 336 h, SETFA: giant foxtail (Setaria faberi), 70 g ai/ha, 14 days after application, read-out: Visual Growth Reduction (%) 14 Days After Application SETFA
For COC(=O)c1nc(-c2ccc(C(F)(F)F)nc2C)c(F)c(N)c1Cl [Compound 35], the pest or weed control at 70 g/ha was 0 to 29%.

Same assay, conditions: post-emergence, 336 h, SETFA: giant foxtail (Setaria faberi), 140 g ai/ha, 14 days after application, read-out: Visual Growth Reduction (%) 14 Days After Application SETFA
For COC(=O)c1nc(-c2ccc(C(F)(F)F)nc2C)c(F)c(N)c1Cl [Compound 35], the pest or weed control at 140 g/ha was 0 to 29%.

Same assay, conditions: post-emergence, 336 h, SORVU: grain sorghum (Sorghum vulgare), 70 g ai/ha, 14 days after application, read-out: Visual Growth Reduction (%) 14 Days After Application SORVU
In the case of COC(=O)c1nc(-c2ccc(C(F)(F)F)nc2C)c(F)c(N)c1Cl [Compound 35], the pest or weed control at 70 g/ha is reported as 0 to 29%.

Same assay, conditions: post-emergence, 336 h, SORVU: grain sorghum (Sorghum vulgare), 140 g ai/ha, 14 days after application, read-out: Visual Growth Reduction (%) 14 Days After Application SORVU
Molecule COC(=O)c1nc(-c2ccc(C(F)(F)F)nc2C)c(F)c(N)c1Cl [Compound 35] has a pest or weed control at 140 g/ha of 0 to 29%.

Same assay, conditions: post-emergence, 336 h, TRZSS (crop), 70 g ai/ha, 14 days after application, read-out: Visual Growth Reduction (%) 14 Days After Application TRZSS
Molecule COC(=O)c1nc(-c2ccc(C(F)(F)F)nc2C)c(F)c(N)c1Cl [Compound 35] has a pest or weed control at 70 g/ha of 0 to 29%.

Same assay, conditions: post-emergence, 336 h, TRZSS (crop), 140 g ai/ha, 14 days after application, read-out: Visual Growth Reduction (%) 14 Days After Application TRZSS
COC(=O)c1nc(-c2ccc(C(F)(F)F)nc2C)c(F)c(N)c1Cl [Compound 35] gave a pest or weed control at 140 g/ha of 0 to 29%.

Same assay, conditions: post-emergence, 336 h, ZEAMX: maize, corn (Zea mays), 70 g ai/ha, 14 days after application, read-out: Visual Growth Reduction (%) 14 Days After Application ZEAMX
For COC(=O)c1nc(-c2ccc(C(F)(F)F)nc2C)c(F)c(N)c1Cl [Compound 35], the pest or weed control at 70 g/ha was 0 to 29%.

Same assay, conditions: post-emergence, 336 h, ZEAMX: maize, corn (Zea mays), 140 g ai/ha, 14 days after application, read-out: Visual Growth Reduction (%) 14 Days After Application ZEAMX
COC(=O)c1nc(-c2ccc(C(F)(F)F)nc2C)c(F)c(N)c1Cl [Compound 35] showed a pest or weed control at 140 g/ha of 0 to 29%.

Tested on: not given
Assay: not given
Conditions: not given
Work on COC(=O)c1nc(-c2ccc(C(F)(F)F)nc2C)c(F)c(N)c1Cl [Compound 35] yielded a melting point of 160 °C.
